# Reference: US20250326785A1, “SODIUM SALT AND ETHANOLAMINE SALT OF 23-HYDROXYTORMENTIC ACID” (HUYABIO International, LLC, priority 2024, published 2025)
# Entries after “also recorded” stand apart in the source; their conditions may differ.
# Columns and labels:
# [1] = system: Adult rats (Sprague Dawley) with MI by LAD ligation; assay: Rat myocardial infarction model: cardiac function by echocardiography; assay type: in vivo
# Description: (§1) Animal Model and Myocardial Infarction: Adult rats (Sprague Dawley (SD), body weight, -250 g) were used to generate a model with MI by LAD ligation of the heart as described in the previous study (Chongyu Zhang, Meng-Hsuan Hsieh, Song-Yi Wu, Shu-Hong Li, Jun Wu, Shi-Ming Liu, Hao-Ji Wei, Richard D. Weisel, Hsing-Wen Sung, Ren-Ke Li, “A self-doping conductive polymer hydrogel that can restore electrical impulse propagation at myocardial infarct to prevent cardiac arrhythmia and preserve ventricular function,” Biomaterials, Volume 231, 2020, 119672, ISSN 0142-9612). In brief, each rat was pre-medicated with 5% isoflurane in a chamber.
# The heart was then exposed through a left anterolateral thoracotomy incision. […] Sham animals was treated identically except that the suture was passed through the myocardium beneath the LAD without ligation. The incision was then closed in layers using 3-0 Vicryl suture and 3-0 silk for the skin. Post-surgery treatment followed per UHN ARC requirement with antibiotics (Duplocillin LA, 15,000 IU/kg, I.M.) and analgesics (Buprenorphrine, 0.03 mg/Kg, SC), and the animals recovered from anesthesia in a warmed environment, under continuous monitoring and care for 1-2 hours.
# (§2) The selected rats having similar FS were randomly divided into 6 groups: (1) Negative control group (treated with 40% SBCD); (2) Positive control group (with HBI-3802, 2 mg/kg /day); (3) Dose 1 (HBI-3808 2 mg/kg/day); (4) Dose 2 (HBI-3808 0.64 mg/kg day); (5) Dose 3 (HBI-3808 0.2 mg/kg/day); and (6) Sham control (No myocardial infarction and treated with 40% SBCD).
# Treatments: The rats were treated by gastric gavage daily starting 6 days after MI for 2 weeks (Turner PV, Vaughn E, Sunohara-Neilson J, Ovari J, Leri F, “Oral gavage in rats: animal welfare evaluation,” J. Am. Assoc. Lab. Anim. Sci., 2012 Jan; 51(1): pp. 25-30. PMID: 22330864; PMCID: PMC3276962) as described in Table 18. The same volume of vehicle (1 mL/rat/day) was given to the rats in sham control group. Ten rats were studied in each group (N=10/group). The schematic plan is depicted in FIG. 35.
# (§3) Oral Treatment: Six days after permanent LAD ligation, the selected rats received the first daily treatment. HBI-3808 (at 1 of the 3 doses) or 3802 at 2 mg/kg/day (1 ml/rat/day) delivered by gastric gavage daily for 14 days (2). 40% SB-CD alone (1 ml/rat/day) was similarly administered to rats in the control and sham groups.
# Measurement of Cardiac Function: Cardiac function was evaluated by echocardiography prior to LAD ligation, prior to treatment (6 days post myocardial infarction), and at 7- and 21-days post first treatment (13 and 27 days post myocardial infarction). The end-point cardiac function was also evaluated using a pressure-volume catheter on Day 21 after first treatment (27 days post myocardial infarction).
# Echocardiography: Each rat was pre-medicated with isoflurane in a chamber, and anesthesia was maintained during measurement with 2.5% isoflurane delivered using a nose cone. Echocardiographic examinations were performed using a GE Vivid-7 System with a 10S transducer. Depth was set at 2 cm. Short-axis views were obtained using the parasternal approach.
# Left ventricular (LV) dimensions [end-diastolic dimension (LVEDD) and end-systolic dimension (LVESD)] from M mode at short axis views of the mid-level LV. Fractional shortening (% FS) was calculated using the equation: [(LVEDD−LVESD)/LVEDD]×100. Ejection fraction (% EF) was calculated using the equation: [(LVEDD^3−LVESD^3)/LVEDD^3]×100.
# [2] = system: Adult rats (Sprague Dawley) with MI by LAD ligation; assay: Rat myocardial infarction model: pressure-volume catheter measurement; assay type: in vivo
# Description: as §1, §2, §3
# Pressure-Volume Measurement: End-point functional and morphological assessments were performed at 21 days after first treatment (27 days post myocardial infarction). Each rat was anesthetized as described above (Myocardial Infarction), and ventilated. The sternotomy was performed, and a calibrated Millar conductance pressure-volume catheter (Millar Instruments, USA) was inserted into the LV cavity through the apex. Pressure and volume data were collected with the Millar software. Parallel conductance was evaluated after the injection of hypertonic saline solution into the right jugular vein, with the volume measurements corrected for the parallel conductance. To analyze the LV pressure and volume relationship, pressure and volume data were acquired, and real-time pressure-volume loops were constructed. Stroke work (SW) and dP/dt max (indices of systolic function) and dP/dt min and Tau_w (index of diastolic function) as well as LV volumes were compared between the groups.
# [3] = Solubility in water (temperature dependence); assay type: physicochemical
# Procedure: Sodium salt of Pattern 5 was prepared using inverse solubility, with dissolution of HBI-3808 free acid in water at low temperature, and heating to reach super saturation, followed by anti-solvent addition. The solids isolated from this process were consistent with sodium salt of pattern 15, which can be converted to sodium salt of pattern 5 via drying under vacuum with exposure to elevated humidity (and the conversion proceeds via sodium salt of pattern 2 as an intermediate).
# [4] = 0.2 mg/kg/day, vs control at 21 days after treatment, p<0.01
# [5] = 0.64 mg/kg/day, compared to 0.2 mg/kg HBI-3808, p<0.02
# [6] = 2 mg/kg/day, 21 days after treatment, p<0.01
# [7] = 2 mg/kg/day, vs 2 mg/kg HBI-3802, 0.64 and 0.2 mg/kg HBI-3808 and control, p<0.05 and 0.01
smiles,measurement,setting,value
"C[C@@H]1CC[C@]2(C(=O)O)CC[C@]3(C)C(=CCC4[C@@]5(C)C[C@@H](O)[C@H](O)[C@@](C)(CO)C5CC[C@]43C)C2[C@]1(C)O (stereo partly shown) [HBI-3808, 23-hydroxytormentic acid]",difference of cardiac function (EF) Days 27 vs 6 post infarction,[1]; 0.16 mg of HBI-3808,showed improvement in cardiac function compared with Day 6
same,difference of cardiac function (EF) Days 27 vs 6 post infarction,[1]; 0.2 mg/kg/day,prevented further deterioration of cardiac dysfunction
same,Left ventricular end systolic dimension (LVESD),[1]; [4],smaller LVESD compared with control group
same,Ejection fraction (EF) / cardiac function,"[1]; 0.2 mg/kg/day, vs control over 21 days, p<0.01",better cardiac function than the control group
same,Fractional shortening (FS) / cardiac function,"[1]; 0.2 mg/kg/day, vs control, p<0.01",better function compared with the control group
same,systolic dilation between Day 6 and Day 21,[1]; 0.64 mg/kg/day,reversal in systolic dilation
same,Ejection fraction (EF),[1]; [5],improved EF
same,Fractional shortening (FS) / cardiac function,[1]; [5],improved cardiac function
same,diastolic dilation between Day 6 and 21,[1]; 2 mg/kg/day,no diastolic dilation
same,difference of cardiac function (EF) Days 27 vs 6 post infarction,[1]; 2 mg/kg/day,"improvement in cardiac function compared with Day 6, which was significantly illustrated"
same,efficacy compared with HBI-3802,[1]; 2 mg/kg/day,greater efficacy compared with HBI-3802
same,systolic dilation between Day 6 and Day 21,[1]; 2 mg/kg/day,reversal in systolic dilation
same,Ejection fraction (EF) after treatment,"[1]; 2 mg/kg/day gastric gavage 14 days from day 6 post MI, vs 0.64 and 0.2 mg/kg HBI-3808 and control",increased significantly
same,cardiac function (conclusion),[1]; 2 mg/kg/day oral,improved both diastolic and systolic function
same,cardiac function (EF) compared with 2 mg/kg HBI-3802 group,[1]; [6],improvement in cardiac function
same,cardiac function (FS) compared with 2 mg/kg HBI-3802 group,[1]; [6],improvement in cardiac function
same,Left ventricular end systolic dimension (LVESD),"[1]; 2 mg/kg/day, vs 2 mg/kg HBI-3802, 0.64 and 0.2 mg/kg HBI-3808 and control, p<0.01",smaller
same,Left ventricular end diastolic dimension (LVEDD),"[1]; 2 mg/kg/day, vs 0.64, 0.2 mg/kg and control groups, p<0.01",smaller
same,Fractional shortening (FS),"[1]; 2 mg/kg/day, vs 0.64 and 0.2 mg/kg HBI-3808 and control",increased FS significantly
same,improvement of cardiac function (conclusion),[1]; 0.64 or 0.2 mg/kg/day,lower-magnitude improvement of cardiac function
same,dose response of cardiac function restoration,"[1]; 2, 0.64, 0.2 mg/kg/day",had a dose response
same,cardiac diastolic function,[2]; [4],better cardiac diastolic function compared with control group
same,cardiac systolic function,"[2]; 0.2 mg/kg/day, vs control at 21 days after treatment, p<0.05",better cardiac systolic function compared with control group
same,left ventricular end systolic volumes (ESV),"[2]; 0.2 mg/kg/day, vs control, p<0.02",significantly smaller
same,Left ventricular end diastolic volumes (EDV),"[2]; 0.64 mg/kg/day, vs 0.2 mg/kg group, p<0.01",significantly smaller
same,stroke work (SW) and dP/dt max (indices of systolic function),"[2]; 2 mg/kg/day, 21 days after treatment, vs 2 mg/kg HBI-3802, 0.64 and 0.2 mg/kg HBI-3808 and control, p<0.01",significantly greater
same,end diastolic volumes compared with non-infarcted sham animals,"[2]; 2 mg/kg/day, Day 21",the same; also recorded: equivalent to non-infarcted sham animals
same,dP/dt min and Tau_w (index of diastolic function),[2]; [7],also improved
same,left ventricular end systolic volumes (ESV),[2]; [7],smaller
same,Left ventricular end diastolic volumes (EDV),"[2]; 2 mg/kg/day, vs 0.64 and 0.2 mg/kg HBI-3808 and control, p<0.01",smaller
"CC1CCC2(C(=O)[O-])CCC3(C)C(=CCC4C5(C)CC(O)C(O)C(C)(CO)C5CCC43C)C2C1(C)O.[Na+] (stereo not shown) [HBI-3808 sodium salt of Pattern 5, sodium salt of 23-hydroxytormentic acid]",solubility in water versus temperature,[3],inverse solubility in water
